From patent US12209087B2, “AKT1 modulators” (Alterome Therapeutics, Inc., priority 2022, dated 2025) come the findings set out here.

One assay deals with T1, full length AKT E17K (Homo sapiens, UniProt P31749, E17K).
T1 construct: host or cells: HEK-293 (ATCC CRL-1573)
T1 sequence (P31749 whole entry E17K): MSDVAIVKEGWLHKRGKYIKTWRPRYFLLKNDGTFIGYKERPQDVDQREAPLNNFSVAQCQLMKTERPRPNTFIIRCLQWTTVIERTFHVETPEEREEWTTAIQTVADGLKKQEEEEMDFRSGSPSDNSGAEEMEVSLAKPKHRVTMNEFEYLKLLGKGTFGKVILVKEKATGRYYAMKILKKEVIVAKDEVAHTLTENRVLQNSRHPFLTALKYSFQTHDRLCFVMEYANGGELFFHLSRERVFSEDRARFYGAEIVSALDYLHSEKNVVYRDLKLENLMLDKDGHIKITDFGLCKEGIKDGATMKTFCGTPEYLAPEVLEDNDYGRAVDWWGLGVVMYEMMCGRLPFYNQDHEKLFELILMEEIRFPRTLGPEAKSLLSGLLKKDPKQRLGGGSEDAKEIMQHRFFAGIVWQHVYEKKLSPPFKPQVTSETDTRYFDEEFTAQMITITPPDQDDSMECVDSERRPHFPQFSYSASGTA
As to the kind of experiment: NanoBRET Target Engagement (TE) Assay. The settings on record: competitive displacement of tracer in cells, read-out: AKT1 E17K IC50. It is filed as cell-based. In outline:
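Compound and tracer incubated 2 h before luminescence at donor 450 nm and acceptor 600 nm, with extracellular signal inhibited. EC50 by sigmoidal variable-slope regression.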
(Bioluminescence resonance energy transfer reports proximity on the nanometre scale.)
As for `Cc1c(-c2ccc3nc(-c4cccnc4N)n(-c4ccc(CN5CCC(Nc6ccnc(C#N)n6)CC5)cc4)c3n2)cnn1C` [Example 484, 4-((1-(4-(2-(2-Aminopyridin-3-yl)-5-(1,5-dimethyl-1H-pyrazol-4-yl)-3H-imidazo[4,5-b]pyridin-3-yl)benzyl)piperidin-4-yl)amino)pyrimidine-2-carbonitrile], the IC50 (as a rule, the midpoint of a concentration-inhibition curve) is below 15 nM.
As to `CC(C)n1cc(-c2ccc3nc(-c4cccnc4N)n(-c4ccc(CN5CCC(Nc6ccnc(C#N)n6)CC5)cc4)c3n2)nn1` [Example 611, 4-((1-(4-(2-(2-Aminopyridin-3-yl)-5-(1-isopropyl-1H-1,2,3-triazol-4-yl)-3H-imidazo[4,5-b]pyridin-3-yl)benzyl)piperidin-4-yl)amino)pyrimidine-2-carbonitrile], the IC50 is below 15 nM.
Same read-out and setting: next, `N#Cc1ncnc(NC2CC3(CCN(Cc4ccc(-n5c(-c6cccnc6N)nc6ccc(N7CCOCC7)nc65)cc4)CC3)C2)n1` [Example 434, 4-((7-(4-(2-(2-Aminopyridin-3-yl)-5-morpholino-3H-imidazo[4,5-b]pyridin-3-yl)benzyl)-7-azaspiro[3.5]nonan-2-yl)amino)-1,3,5-triazine-2-carbonitrile]: 15 to 60 nM; `N#Cc1nccc(N2CCN(Cc3ccc(-n4c(-c5cccnc5N)nc5ccc(C6=CCOCC6)nc54)cc3)CC2)n1` [Example 330, 4-(4-(4-(2-(2-Aminopyridin-3-yl)-5-(3,6-dihydro-2H-pyran-4-yl)-3H-imidazo[4,5-b]pyridin-3-yl)benzyl)piperazin-1-yl)pyrimidine-2-carbonitrile]: below 15 nM.
Still for that read-out and setting: next, `N#Cc1nccc(NC2CCN(Cc3ccc(-n4c(-c5cccnc5N)nc5ccc(-c6ccc(F)cc6C(F)(F)F)nc54)cc3)CC2)n1` [Example 526, 4-((1-(4-(2-(2-Aminopyridin-3-yl)-5-(4-fluoro-2-(trifluoromethyl)phenyl)-3H-imidazo[4,5-b]pyridin-3-yl)benzyl)piperidin-4-yl)amino)pyrimidine-2-carbonitrile]: 600 to 10000 nM; `Cn1ncc(-c2ccc3nc(-c4nccnc4N)n(-c4ccc(CN5CCC(Nc6ccnc(C#N)n6)CC5)cc4)c3n2)n1` [Example 562, 4-((1-(4-(2-(3-Aminopyrazin-2-yl)-5-(2-methyl-2H-1,2,3-triazol-4-yl)-3H-imidazo[4,5-b]pyridin-3-yl)benzyl)piperidin-4-yl)amino)pyrimidine-2-carbonitrile]: below 15 nM; `N#Cc1nccc(N2CCN(Cc3ccc(-n4c(-c5cccnc5N)nc5ccc(-c6cccnc6C#N)nc54)cc3)CC2)n1` [Example 424, 4-(4-(4-(2-(2-Aminopyridin-3-yl)-5-(2-cyanopyridin-3-yl)-3H-imidazo[4,5-b]pyridin-3-yl)benzyl)piperazin-1-yl)pyrimidine-2-carbonitrile]: 15 to 60 nM.
Turning to `N#Cc1nccc(NC2CCN(Cc3ccc(-n4c(-c5cccnc5N)nc5ccc(-c6ccncc6F)nc54)cc3)CC2)n1` [Example 551, 4-((1-(4-(2-(2-aminopyridin-3-yl)-5-(3-fluoropyridin-4-yl)-3H-imidazo[4,5-b]pyridin-3-yl)benzyl)piperidin-4-yl)amino)pyrimidine-2-carbonitrile], the IC50 is below 15 nM.

The assay is the same for the next values; noted with them: competitive tracer displacement in living cells, read-out: AKT1 E17K IC50.
Take `N#Cc1nccc(C(=O)NC2C3CCC2CN(Cc2ccc(-n4c(-c5cccnc5N)nc5ccc(-c6ccccc6)nc54)cc2)C3)n1` (stereo not shown) [Example 229, N-(3-(4-(2-(2-aminopyridin-3-yl)-5-phenyl-3H-imidazo[4,5-b]pyridin-3-yl)benzyl)-3-azabicyclo[3.2.1]octan-8-yl)-2-cyanopyrimidine-4-carboxamide]: the IC50 is 15 to 60 nM.
Take `N#Cc1cccc(N2CCN(Cc3ccc(-n4c(-c5cccnc5N)nc5ccc(-c6ccccc6)nc54)cc3)CC2)n1` [Example 83, 6-(4-(4-(2-(2-Aminopyridin-3-yl)-5-phenyl-3H-imidazo[4,5-b]pyridin-3-yl)benzyl)piperazin-1-yl)picolinonitrile]: the IC50 lay within 60 to 600 nM.
The same measure, in the same setting: next, `N#Cc1ccncc1C(=O)N1CCN(Cc2ccc(-n3c(-c4cccnc4N)nc4ccc(-c5ccccc5)nc43)cc2)CC1` [Example 145, 3-(4-(4-(2-(2-Aminopyridin-3-yl)-5-phenyl-3H-imidazo[4,5-b]pyridin-3-yl)benzyl)piperazine-1-carbonyl)isonicotinonitrile]: 600 to 10000 nM; `N#Cc1ncnc(N2CCN(Cc3ccc(-n4c(-c5cccnc5N)nc5ccc(-c6ccccc6)nc54)cc3)CC23CC3)n1` [Example 276, 4-(7-(4-(2-(2-aminopyridin-3-yl)-5-phenyl-3H-imidazo[4,5-b]pyridin-3-yl)benzyl)-4,7-diazaspiro[2.5]octan-4-yl)-1,3,5-triazine-2-carbonitrile]: below 15 nM; `N#Cc1nc2cc(F)cc(C(=O)N3CCN(Cc4ccc(-n5c(-c6cccnc6N)nc6ccc(-c7ccccc7)nc65)cc4)CC3)c2s1` [Example 180, 7-(4-(4-(2-(2-Aminopyridin-3-yl)-5-phenyl-3H-imidazo[4,5-b]pyridin-3-yl)benzyl)piperazine-1-carbonyl)-5-fluorobenzo[d]thiazole-2-carbonitrile]: 15 to 60 nM.
The same measure, in the same setting: the result for `N#Cc1ccnc(N2CCN(Cc3ccc(-n4c(-c5cccnc5N)nc5ccc(-c6ccccc6F)nc54)cc3)CC2)n1` [Example 282, 2-(4-(4-(2-(2-Aminopyridin-3-yl)-5-(2-fluorophenyl)-3H-imidazo[4,5-b]pyridin-3-yl)benzyl)piperazin-1-yl)pyrimidine-4-carbonitrile] reads 15 to 60 nM; that for `N#Cc1ccnc(NC2CCN(Cc3ccc(-n4c(-c5cccnc5N)nc5ccc(-c6ccccc6Cl)nc54)cc3)CC2)n1` [Example 306, 2-((1-(4-(2-(2-Aminopyridin-3-yl)-5-(2-chlorophenyl)-3H-imidazo[4,5-b]pyridin-3-yl)benzyl)piperidin-4-yl)amino)pyrimidine-4-carbonitrile], 15 to 60 nM.
With `N#Cc1nnccc1C(=O)N1CCN(Cc2ccc(-n3c(-c4cccnc4N)nc4ccc(-c5ccccc5)nc43)cc2)CC1` [Example 70, 4-(4-(4-(2-(2-Aminopyridin-3-yl)-5-phenyl-3H-imidazo[4,5-b]pyridin-3-yl)benzyl)piperazine-1-carbonyl)pyridazine-3-carbonitrile], the IC50 was 60 to 600 nM.
Same read-out and setting: the result for `N#Cc1nccc(NC2CCN(Cc3ccc(-n4c(-c5cccnc5N)nc5ccc(C6CCC6)nc54)cc3)CC2)n1` [Example 262, 4-((1-(4-(2-(2-aminopyridin-3-yl)-5-cyclobutyl-3H-imidazo[4,5-b]pyridin-3-yl)benzyl)piperidin-4-yl)amino)pyrimidine-2-carbonitrile] reads below 15 nM.
Still for that read-out and setting: the result for `N#Cc1ccc(C(=O)NC2CCN(Cc3ccc(-n4c(-c5cccnc5N)nc5cccnc54)cc3)CC2)nc1` [Example 25, N-(1-(4-(2-(2-Aminopyridin-3-yl)-3H-imidazo[4,5-b]pyridin-3-yl)benzyl)piperidin-4-yl)-5-cyanopicolinamide] reads 600 to 10000 nM; that for `N#Cc1nc(C(=O)NCc2ccc(-n3c(-c4cccnc4N)nc4cccnc43)cc2)cs1` [Example 244, N-(4-(2-(2-Aminopyridin-3-yl)-3H-imidazo[4,5-b]pyridin-3-yl)benzyl)-2-cyanothiazole-4-carboxamide], 600 to 10000 nM.
